According to patent US11241013B2, “Benzimidazole compounds as agricultural chemicals” (REDAG CROP PROTECTION LTD, priority 2017, dated 2022):

Tests used:
Pythium ultimum = test: Amended agar assay; assay type: cell-based; details: Globisporangium ultimum, amended PDA agar, % reduction in colony growth vs control plate, 18° C.
Method: Testing was carried out on potato dextrose agar (PDA) amended with each compound at a test concentration of typically 20 ppm or 2 ppm. Amended agar was poured into three replicate 9 cm petri dishes. Each replicate dish was inoculated in the centre with a 5 mm agar plug taken from the leading edge of a culture aged between 2 and 7 days old; the age of the culture was dependant on the growth rate of the pathogen being tested. The test pathogens were Pythium ultimum and Phytophthora cinnamomi. Plates were incubated at 18° C. and the diameter of each colony measured before growth on the fastest growing plate reached the plate edge. This varied between 2 and 7 days depending on the growth rate of test pathogens. The % reduction in colony growth compared to the control plate was calculated for each pathogen. The results are provided in Table 1, in which D represents no control detected at this concentration; C represents up to 50% control; B from 50 to 99% control; and A represents a control of greater than 99%, i.e. no detectable colony growth.
Alternatively, or in addition, the same assay was conducted at descending test concentrations with 5-fold dilutions typically down to 0.032 ppm though sometimes as low as 0.00026 ppm, and an EC50 (the concentration at which 50% control would be achieved) was determined. The results are provided in Table 1 in which G represents no control detected at 20 ppm, F represents an EC50 of ≥20 ppm and E represents an EC50 of less than 20 ppm.

Phytophthora cactorum = test: 96 well plate test; assay type: cell-based; details: 96 well plate assay, agar amended to 20, 2, 0.2 and 0.02 ppm, assessed after 2 to 3 days, read-out: EC50 Phytophthora spp. (Phytophthora cactorum)
Method: Compounds were screened in 96 well plates with 10 compounds per plate. Each compound was screened using agar amended to 20, 2, 0.2 and 0.02 ppm, with proline at 50 and 10 ppm and 0.2% DMSO used as controls. Each test concentration and standard was replicated twice on a plate. Compounds were screened against Phytophthora cactorum. The agar used in the test is a 1% potato dextrose agar. 1000 spores/mL agar were added to the appropriate agar. A ×10 stock solution in 2% DMSO was produced for each dose i.e. 200, 20, 2 and 0.2 ppm, and 10 μl of this added to the appropriate wells on the plate. An equivalent amount of 2% DMSO and proline stock at 500 and 100 ppm were added for the controls. To each well 90 μl of the appropriate agar spore suspension was added to give the required final well concentrations. Plates were incubated at room temperature (18° C.) and assessed after 2 to 3 days. The amount of pathogen growth in each well was compared to the DMSO controls and an EC50 concentration was calculated. The results are provided in Table 1 in which H represents no control detected at 20 ppm, G represents no control detected at 2 ppm (where the highest test concentration in the assay was 2 ppm), F represents an EC50 of ≥20 ppm, E represents an EC50 of less than 20 ppm.

Cc1cccnc1COc1nc2ccccc2n1-c1nnnn1C [Example 3]
inhibition of growth at 2 ppm (Pythium ultimum): 50 to 99% | inhibition of growth at 20 ppm (Pythium ultimum): > 99% | EC50 (Phytophthora cactorum): ≥ 20 mg/L

COc1ccnc(COc2nc3ccccc3n2-c2nnnn2C)c1 [Example 4]
inhibition of growth at 2 ppm (Pythium ultimum): > 99% | inhibition of growth at 20 ppm (Pythium ultimum): > 99% | EC50 (Phytophthora cactorum): < 20 mg/L

Cc1ccc(COc2nc3ccccc3n2-c2nnnn2C)nc1 [Example 6]
inhibition of growth at 2 ppm (Pythium ultimum): > 99% | inhibition of growth at 20 ppm (Pythium ultimum): > 99% | EC50 (Phytophthora cactorum): ≥ 20 mg/L

Cn1nnnc1-n1c(OCc2ccncn2)nc2ccccc21 [Example 7]
inhibition of growth at 2 ppm (Pythium ultimum): > 99% | EC50 (Phytophthora cactorum): < 20 mg/L

Clc1cncnc1-n1c(OCc2ccccn2)nc2ccccc21 [Example 8]
inhibition of growth at 2 ppm (Pythium ultimum): 50 to 99% | EC50 (Phytophthora cactorum): ≥ 20 mg/L

COCCCOc1ccnc(COc2nc3ccccc3n2-c2ncncc2Cl)c1C [Example 10]
inhibition of growth at 2 ppm (Pythium ultimum): 50 to 99% | EC50 (Phytophthora cactorum): ≥ 20 mg/L

Cc1ccnc(COc2nc3ccccc3n2-c2nnnn2C)c1 [Example 11]
inhibition of growth at 2 ppm (Pythium ultimum): > 99% | inhibition of growth at 20 ppm (Pythium ultimum): > 99% | EC50 (Phytophthora cactorum): < 20 mg/L

COc1c(C)cnc(COc2nc3ccccc3n2-c2nnnn2C)c1C [Example 12]
inhibition of growth at 2 ppm (Pythium ultimum): > 99% | inhibition of growth at 20 ppm (Pythium ultimum): > 99% | EC50 (Phytophthora cactorum): < 20 mg/L

COc1ccnc(COc2nc3ccccc3n2-c2nnnn2C)c1OC [Example 13]
inhibition of growth at 2 ppm (Pythium ultimum): 50 to 99% | inhibition of growth at 20 ppm (Pythium ultimum): > 99% | EC50 (Phytophthora cactorum): < 20 mg/L

Cc1c(OCC(F)(F)F)ccnc1COc1nc2ccccc2n1-c1nnnn1C [Example 14]
inhibition of growth at 2 ppm (Pythium ultimum): > 99% | inhibition of growth at 20 ppm (Pythium ultimum): > 99% | EC50 (Phytophthora cactorum): < 20 mg/L

Cn1nnnc1-n1c(OCc2nccs2)nc2ccccc21 [Example 16]
inhibition of growth at 2 ppm (Pythium ultimum): < 50% | EC50 (Phytophthora cactorum): ≥ 20 mg/L

Cn1nnnc1-n1c(OCc2cccc(Br)n2)nc2ccccc21 [Example 17, 2-((6-bromopyridin-2-yl)methoxy)-1-(1-methyl-1H-tetrazol-5-yl)-1H-benzo[d]imidazole]
inhibition of growth at 2 ppm (Pythium ultimum): < 50% | EC50 (Phytophthora cactorum): ≥ 20 mg/L

COc1ccnc(COc2nc3ccccc3n2-c2ncncc2Cl)c1 [Example 22]
inhibition of growth at 2 ppm (Pythium ultimum): 50 to 99% | EC50 (Phytophthora cactorum): ≥ 20 mg/L

Clc1cncnc1-n1c(OCc2nccs2)nc2ccccc21 [Example 23]
inhibition of growth at 2 ppm (Pythium ultimum): 50 to 99% | EC50 (Phytophthora cactorum): ≥ 20 mg/L

COc1c(C)cnc(COc2nc3ccccc3n2-c2ncncc2Cl)c1C [Example 24]
inhibition of growth at 2 ppm (Pythium ultimum): 50 to 99% | EC50 (Phytophthora cactorum): < 20 mg/L

Cn1nnnc1-n1c(OCc2ccccn2)nc2c(Cl)cccc21 [Example 30]
inhibition of growth at 2 ppm (Pythium ultimum): > 99% | EC50 (Phytophthora cactorum): < 20 mg/L

Cn1nnnc1-n1c(OCc2cccc(NCc3ccccc3)n2)nc2ccccc21 [Example 35, N-Benzyl-6-(((1-(1-methyl-1H-tetrazol-5-yl)-1H-benzo[d]imidazol-2-yl)oxy)methyl)pyridin-2-amine]
inhibition of growth at 2 ppm (Pythium ultimum): > 99% | EC50 (Phytophthora cactorum): < 20 mg/L

CCNc1cccc(COc2nc3ccccc3n2-c2nnnn2C)n1 [Example 36]
inhibition of growth at 2 ppm (Pythium ultimum): > 99% | EC50 (Phytophthora cactorum): < 20 mg/L

CC(C)CCNc1cccc(COc2nc3ccccc3n2-c2nnnn2C)n1 [Example 37]
inhibition of growth at 2 ppm (Pythium ultimum): > 99% | EC50 (Phytophthora cactorum): < 20 mg/L

Cn1nnnc1-n1c(OCc2cccc(NCCCc3ccccc3)n2)nc2ccccc21 [Example 38]
inhibition of growth at 2 ppm (Pythium ultimum): > 99% | EC50 (Phytophthora cactorum): < 20 mg/L

Cn1nnnc1-n1c(OCc2cccc(NCCc3ccccc3)n2)nc2ccccc21 [Example 39]
inhibition of growth at 2 ppm (Pythium ultimum): > 99% | EC50 (Phytophthora cactorum): < 20 mg/L

Cn1nnnc1-n1c(OCc2cccc(NCc3ccccn3)n2)nc2ccccc21 [Example 40]
inhibition of growth at 2 ppm (Pythium ultimum): > 99% | EC50 (Phytophthora cactorum): < 20 mg/L

CCCNc1cccc(COc2nc3ccccc3n2-c2nnnn2C)n1 [Example 42]
inhibition of growth at 2 ppm (Pythium ultimum): > 99% | EC50 (Phytophthora cactorum): < 20 mg/L

CCCCNc1cccc(COc2nc3ccccc3n2-c2nnnn2C)n1 [Example 43]
inhibition of growth at 2 ppm (Pythium ultimum): > 99% | EC50 (Phytophthora cactorum): < 20 mg/L

Cn1nnnc1-n1c(OCc2cccc(NCc3ccco3)n2)nc2ccccc21 [Example 44]
inhibition of growth at 2 ppm (Pythium ultimum): > 99% | EC50 (Phytophthora cactorum): < 20 mg/L
